Patent US7265103B2, “Substituted amino isoxazoline derivatives and their use as anti-depressants” (Janssen Pharmaceutica NV., priority 2002, dated 2007)

How the values were obtained:
[1] = molecular target: T1, hα2C receptor (Homo sapiens, UniProt P18825); test: Radioligand binding experiment for α2C-adrenergic receptor ([3H]-raulwolscine); conditions: CHO cell membranes with human α2C receptor, [3H]raulwolscine 1 nM; read-out: pIC50 α2C (converted)
T1 construct: expressed in transfected cells; host or cells: CHO cells
T1 sequence (P18825 1-462): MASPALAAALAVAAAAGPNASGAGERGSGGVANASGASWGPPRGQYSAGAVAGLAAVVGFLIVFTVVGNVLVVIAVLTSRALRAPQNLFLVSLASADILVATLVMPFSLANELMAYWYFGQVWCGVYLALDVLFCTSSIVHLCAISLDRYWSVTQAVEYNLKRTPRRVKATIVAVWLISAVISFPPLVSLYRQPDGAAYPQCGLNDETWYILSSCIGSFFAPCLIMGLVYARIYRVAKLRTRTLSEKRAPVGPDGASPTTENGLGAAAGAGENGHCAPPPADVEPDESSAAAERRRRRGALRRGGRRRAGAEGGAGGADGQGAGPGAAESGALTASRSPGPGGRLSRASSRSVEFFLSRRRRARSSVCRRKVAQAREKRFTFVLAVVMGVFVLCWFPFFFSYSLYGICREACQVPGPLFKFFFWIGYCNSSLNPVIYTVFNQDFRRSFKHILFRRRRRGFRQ
Experimental: (§1) The interaction of the compounds of Formula (I) with hα2-receptors and h5-HT-transporters was assessed in in vitro radioligand binding experiments. In general, a low concentration of a radioligand with a high binding affinity for a particular receptor or transporter is incubated with a sample of a tissue preparation enriched in a particular receptor or transporter or with a preparation of cells expressing cloned human receptors in a buffered medium. During the incubation, the radioligand binds to the receptor or transporter. When equilibrium of binding is reached, the receptor bound radioactivity is separated from the non-bound radioactivity, and the receptor- or transporter-bound activity is counted. The interaction of the test compounds with the receptor is assessed in competition binding experiments. Various concentrations of the test compound are added to the incubation mixture containing the receptor- or transporter preparation and the radioligand. The test compound in proportion to its binding affinity and its concentration inhibits binding of the radioligand. The radioligand used for hα2A, hα2B and hα2C receptor binding was [^3H]-raulwolscine and for the h5-HT transporter was [^3H]paroxetine.
(§2) CHO cells, stabile transfected with human adrenergic-α2A-, -α2B or α2C receptor cDNA, were cultured in Dulbecco's Modified Eagle's Medium (DMEM)/Nutrient mixture Ham's F12 (ratio 1:1)(Gibco, Gent-Belgium) supplemented with 10% heat inactivated fetal calf serum (Life Technologies, Merelbeke-Belgium) and antibiotics (100 IU/ml penicillin G, 100 μg/ml streptomycin sulphate, 110 μg/ml pyruvic acid and 100 μg/ml L-glutamine). One day before collection, cells were induced with 5 mM sodiumbutyrate. Upon 80-90% of confluence, cells were scraped in phosphate buffered saline without Ca^2+ and Mg^2+ and collected by centrifugation at 1500×g for 10 min. The cells were homogenised in Tris-HCl 50 mM using an Ultraturrax homogenizer and centrifuged for 10 min at 23,500×g. The pellet was washed once by resuspension and rehomogenization and the final pellet was resuspended in Tris-HCl, divided in 1 ml aliquots and stored at −70° C.
(§3) Membranes were thawed and re-homogenized in incubation buffer (glycylglycine 25 mM, pH 8.0). In a total volume of 500 μl, 2-10 μg protein was incubated with [^3H]raulwolscine (NET-722) (New England Nuclear, USA) (1 nM final concentration) with or without competitor for 60 min at 25° C. followed by rapid filtration over GF/B filter using a Filtermatel 96 harvester (Packard, Meriden, Conn.). Filters were rinsed extensively with ice-cold rinsing buffer (Tris-HCl 50 mM pH 7.4). Filter-bound radioactivity was determined by scintillation counting in a Topcount (Packard, Meriden, Conn.) and results were expressed as counts per minute (cpm). Non-specific binding was determined in the presence of 1 μM oxymetazoline for hα2A- and hα2B receptors and 1 μM spiroxatrine for hα2C receptors.
(§4) Data from assays in the presence of compound were calculated as a percentage of total binding measured in the absence of test compound. Inhibition curves, plotting percent of total binding versus the log value of the concentration of the test compound, were automatically generated, and sigmoidal inhibition curves were fitted using non-linear regression. The pIC50 values of test compounds were derived from individual curves.

[2] = molecular target: T2, hα2A receptor (Homo sapiens, UniProt P08913); test: Radioligand binding experiment for α2A-adrenergic receptor ([3H]-raulwolscine); conditions: CHO cell membranes with human α2A receptor, [3H]raulwolscine 1 nM; read-out: pIC50 α2A (converted)
T2 construct: expressed in transfected cells; host or cells: CHO cells
T2 sequence (P08913 1-465): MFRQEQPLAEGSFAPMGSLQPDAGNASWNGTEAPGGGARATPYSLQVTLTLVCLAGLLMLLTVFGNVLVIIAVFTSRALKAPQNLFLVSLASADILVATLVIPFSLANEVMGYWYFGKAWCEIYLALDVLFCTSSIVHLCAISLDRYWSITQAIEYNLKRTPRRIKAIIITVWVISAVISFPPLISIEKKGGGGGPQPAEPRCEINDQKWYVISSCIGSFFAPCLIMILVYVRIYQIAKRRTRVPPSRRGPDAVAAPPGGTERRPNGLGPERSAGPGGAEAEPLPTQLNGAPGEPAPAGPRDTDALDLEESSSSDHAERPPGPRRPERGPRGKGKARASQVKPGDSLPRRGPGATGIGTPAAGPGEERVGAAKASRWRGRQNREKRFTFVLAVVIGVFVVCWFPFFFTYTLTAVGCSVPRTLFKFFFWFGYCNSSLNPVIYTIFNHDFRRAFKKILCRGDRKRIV
Experimental: as §1, §2, §3, §4

[3] = molecular target: T3, h5-HT transporter (Homo sapiens, UniProt P31645); test: Radioligand binding experiment for 5-HT transporter ([3H]paroxetine); conditions: human platelet membranes, [3H]paroxetine 0.5 nM
T3 construct: Human platelet membranes (Oceanix Biosciences Corporation, Hanover, Md., USA) were thawed; tissue Oceanix Biosciences Corporation; host or cells: human platelet membranes
Experimental: as §1
Human platelet membranes (Oceanix Biosciences Corporation, Hanover, Md., USA) were thawed, diluted in buffer (Tris-HCl 50 mM, 120 mM NaCl and 5 mM KCl) and quickly (max 3 s) homogenised with an Ultraturrax homogenizer. In a total volume of 250 μL, 50-100 μg protein was incubated with [^3H]paroxetine (NET-869) (New England Nuclear, USA) (0.5 nM final concentration) with or without competitor for 60 min at 25° C. Incubation was stopped by rapid filtration of the incubation mixture over GF/B filters, pre-wetted with 0.1% polyethyleneamine, using a Filtermatel 96 harvester (Packard, Meriden, Conn.). Filters were rinsed extensively with ice-cold buffer and radioactivity on the filters was counted in a Topcount liquid scintillation counter (Packard, Meriden, Conn.). Data were expressed as cpm. Imipramine (at 1 μM final concentration) was used to determine the non-specific binding.
as §4

T3 sequence (P31645 whole entry): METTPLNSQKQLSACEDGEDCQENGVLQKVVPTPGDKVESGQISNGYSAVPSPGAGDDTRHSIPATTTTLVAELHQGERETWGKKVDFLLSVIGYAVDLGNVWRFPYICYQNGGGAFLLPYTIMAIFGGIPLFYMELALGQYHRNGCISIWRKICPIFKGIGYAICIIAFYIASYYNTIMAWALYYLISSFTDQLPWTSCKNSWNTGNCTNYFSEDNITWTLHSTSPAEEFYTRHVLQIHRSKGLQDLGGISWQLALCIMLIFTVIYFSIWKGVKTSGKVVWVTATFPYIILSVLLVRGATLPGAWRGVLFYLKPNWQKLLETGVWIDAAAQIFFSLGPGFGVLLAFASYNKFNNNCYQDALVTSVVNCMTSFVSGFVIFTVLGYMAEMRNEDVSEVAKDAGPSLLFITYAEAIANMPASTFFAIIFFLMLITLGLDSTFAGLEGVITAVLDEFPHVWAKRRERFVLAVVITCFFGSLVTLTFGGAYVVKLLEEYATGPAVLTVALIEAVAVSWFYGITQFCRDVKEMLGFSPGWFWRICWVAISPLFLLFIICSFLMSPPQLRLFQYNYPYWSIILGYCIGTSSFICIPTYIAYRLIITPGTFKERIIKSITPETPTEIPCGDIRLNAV

Row | Structure (SMILES) | IC50 [1] [nM] | IC50 [2] [nM] | IC50 [3] [nM]
1 | CNCCNc1ccc2c(c1)OCC1C2=NOC1CN1CCN(CC(C)=Cc2ccc(F)cc2)CC1 (stereo not drawn) [Compound 20] | 3.16 | 31.6 | 7.94
2 | COc1cc2c(cc1Nc1ccncc1)OCC1C2=NOC1CN1CCN(CC(C)=Cc2ccc(F)cc2)CC1 (stereo not drawn) [Compound 100] | 5.01 | 10 | 10
3 | CC(=Cc1ccccc1)CN1CCN(CC2ON=C3c4ccc(N(C)Cc5ccccc5)cc4OCC32)CC1 (stereo not drawn) [Compound 47] | 3.16 | 2.51 | 50.1
4 | CC(=Cc1ccccc1)CN1CCN(CC2ON=C3c4ccc(NC(=O)c5ccccc5)cc4OCC32)CC1 (stereo not drawn) [Compound 55] | 3.16 | 5.01 | 25.1
5 | CC(=Cc1ccc(F)cc1)CN1CCN(CC2ON=C3c4ccc(N(C)CCOC(=O)CC(C)(C)C)cc4OCC32)CC1 (stereo not drawn) [Compound 117] | 126 | 251 | 100
6 | CC(=Cc1ccc(F)cc1)CN1CCN(CC2ON=C3c4ccc(N(C)CCNC5CCC5)cc4OCC32)CC1 (stereo not drawn) [Compound 111] | 6.31 | 25.1 | 12.6
7 | C/C(=C\c1ccccc1)CN1CCN(CC2ON=C3c4ccc(N(C)CCN(C)C)cc4OCC32)CC1 (stereo not drawn) [Compound 1] | 1 | 1.26 | 6.31
8 | COc1cc2c(cc1N(C)CCO)OCC1C2=NOC1CN1CCN(CC(C)=Cc2cccc(F)c2)CC1 (stereo not drawn) [Compound 36] | 2.51 | 20 | 25.1
9 | CC(=Cc1ccc(F)cc1)CN1CCN(CC2ON=C3c4ccc(NC(=O)OC(C)(C)C)cc4OCC32)CC1 (stereo not drawn) [Compound 58] | 31.6 | 63.1 | 31.6
10 | CC(=O)N1CCOc2cc3c(cc21)OCC1C3=NOC1CN1CCN(C/C(C)=C/c2ccccc2)CC1 (stereo not drawn) [Compound 12] | 1 | 2 | 31.6
11 | C/C(=C\c1ccccc1)CN1CCN(CC2ON=C3c4ccc(NC(=O)[C@@H]5CCCN5)cc4OCC32)CC1 (stereo partly drawn) [Compound 57] | 0.631 | 5.01 | 25.1
12 | COc1cc2c(cc1NC(=O)Nc1ccccc1)OCC1C2=NOC1CN1CCN(CC(C)=Cc2ccc(F)cc2)CC1 (stereo not drawn) [Compound 124] | 158 | 316 | 50.1
13 | CCNC(=O)N(C(=O)NCC)c1ccc2c(c1)OCC1C2=NOC1CN1CCN(CC(C)=Cc2ccc(F)cc2)CC1 (stereo not drawn) [Compound 60] | 398 | 3160 | 6310
14 | CC(=Cc1ccc(F)cc1)CN1CCN(CC2ON=C3c4ccc(N5CCNCC5)cc4OCC32)CC1 (stereo not drawn) [Compound 136] | 5.01 | 39.8 | 7.94
15 | COc1cc2c(cc1N1CCC(C)CC1)OCC1C2=NOC1CN1CCN(CC(C)=Cc2ccc(F)cc2)CC1 (stereo not drawn) [Compound 103] | 63.1 | 79.4 | 126
16 | CC(=Cc1ccc(F)cc1)CN1CCN(CC2ON=C3c4ccc(N(C)CCN(C)C)cc4OCC32)CC1 (stereo not drawn) [Compound 23] | 2 | 10 | 5.01
17 | COc1cc2c(cc1NC(=O)C1CC1)OCC1C2=NOC1CN1CCN(CC(C)=Cc2cccc(F)c2)CC1 (stereo not drawn) [Compound 53] | 0.631 | 3.98 | 10
18 | COc1cc2c(cc1N(C)CCN(C)C)OCC1C2=NOC1CN1CCN(C/C(C)=C/c2ccccc2)CC1 (stereo not drawn) [Compound 11] | 1.58 | 2 | 3.16
19 | COc1cc2c(cc1N)OCC1C2=NOC1CN1CCN(CC(C)=Cc2cccc(F)c2)CC1 (stereo not drawn) [Compound 86] | 1.58 | 6.31 | 5.01
20 | CC(=Cc1ccccc1)CN1CCN(CC2ON=C3c4ccc(N(C)CCO)cc4OCC32)CC1 (single isomer, unassigned) [Compound 33] | 39.8 | 631 | 12.6
21 | CC(=Cc1ccc(F)cc1)CN1CCN(CC2ON=C3c4ccc(NC(C)C)cc4OCC32)CC1 (stereo not drawn) [Compound 129] | 31.6 | 63.1 | 158
22 | CC(=Cc1ccccc1)CN1CCN(CC2ON=C3c4ccc(N(C)Cc5ccccc5)cc4OCC32)CC1 (stereo not drawn) [Compound 48] | 31.6 | 39.8 | 158
23 | CCC(C)CNc1cc2c(cc1OC)C1=NOC(CN3CCN(CC(C)=Cc4ccc(F)cc4)CC3)C1CO2 (stereo not drawn) [Compound 104] | 126 | 126 | 316
24 | C=CCN(C)CCN(C)c1ccc2c(c1)OCC1C2=NOC1CN1CCN(CC(C)=Cc2ccc(F)cc2)CC1 (stereo not drawn) [Compound 121] | 100 | 501 | 158
25 | CC(=Cc1ccc(F)cc1)CN1CCN(CC2ON=C3c4ccc(N(C)CCNCC5CC5)cc4OCC32)CC1 (stereo not drawn) [Compound 118] | 3.16 | 12.6 | 3.16
26 | CCC(C)NC(=O)OCCN(C)c1ccc2c(c1)OCC1C2=NOC1CN1CCN(CC(C)=Cc2ccc(F)cc2)CC1 (stereo not drawn) [Compound 127] | 158 | 316 | 200
27 | CC(=Cc1ccc(F)cc1)CN1CCN(CC2ON=C3c4ccc(N(C)CCN(C)C(C)(C)C)cc4OCC32)CC1 (stereo not drawn) [Compound 122] | 7.94 | 39.8 | 6.31
28 | CC(=Cc1ccc(F)cc1)CN1CCN(CC2ON=C3c4ccc(N5CCc6ccccc6C5)cc4OCC32)CC1 (stereo not drawn) [Compound 73] | 5.01 | 50.1 | 63.1
29 | CC(=Cc1ccccc1)CN1CCN(CC2ON=C3c4ccc(N(C)CCO)cc4OCC32)CC1 (single isomer, unassigned) [Compound 34] | 0.398 | 2 | 63.1
